Laboratory results published in the NIST ThermoML archive (doi:10.1021/acs.jced.7b00106).

Details: Liquid, Hot wire method

FC(F)(F)/C=C/Cl [(E)-1-chloro-3,3,3-trifluoroprop-1-ene]
Details | thermal conductivity [W/m/K]
203.56 K, 10316 kPa | 0.1156
203.65 K, 10337 kPa | 0.1151
203.67 K, 219 kPa | 0.1135
203.67 K, 10365 kPa | 0.116
203.68 K, 5190 kPa | 0.1132
203.68 K, 10370 kPa | 0.1166
203.76 K, 231 kPa | 0.113
203.76 K, 10344 kPa | 0.1159
203.77 K, 5194 kPa | 0.1133
203.77 K, 10372 kPa | 0.1156
203.91 K, 10339 kPa | 0.1163
204.02 K, 228 kPa | 0.1135
204.02 K, 5185 kPa | 0.114
204.02 K, 10301 kPa | 0.1153
204.02 K, 10366 kPa | 0.1154
204.02 K, 10378 kPa | 0.1158
204.12 K, 10382 kPa | 0.1152
204.13 K, 232 kPa | 0.1125
204.13 K, 5176 kPa | 0.1137
204.13 K, 10374 kPa | 0.1153
204.3 K, 10296 kPa | 0.1148
204.4 K, 223 kPa | 0.1124
204.4 K, 5171 kPa | 0.1142
204.4 K, 10360 kPa | 0.1158
204.41 K, 10375 kPa | 0.1154
204.43 K, 10300 kPa | 0.1153
204.53 K, 10368 kPa | 0.1152
204.54 K, 5176 kPa | 0.1138
204.54 K, 10353 kPa | 0.115
204.55 K, 227 kPa | 0.1121
204.71 K, 10305 kPa | 0.115
204.81 K, 10351 kPa | 0.1146
204.81 K, 10361 kPa | 0.1153
204.82 K, 232 kPa | 0.1125
204.82 K, 5179 kPa | 0.1141
204.88 K, 10317 kPa | 0.1155
204.97 K, 10365 kPa | 0.1148
204.98 K, 5182 kPa | 0.1135
204.98 K, 10343 kPa | 0.1151
204.99 K, 223 kPa | 0.1121
205.17 K, 10310 kPa | 0.1155
205.25 K, 10392 kPa | 0.1152
205.26 K, 10349 kPa | 0.1152
205.27 K, 5170 kPa | 0.1139
205.29 K, 230 kPa | 0.1124
205.36 K, 10304 kPa | 0.1149
205.44 K, 10383 kPa | 0.1147
205.45 K, 10380 kPa | 0.1147
205.46 K, 5164 kPa | 0.1134
205.48 K, 239 kPa | 0.1121
222.19 K, 65394 kPa | 0.1242
222.21 K, 54365 kPa | 0.1216
222.27 K, 44671 kPa | 0.1193
222.28 K, 65396 kPa | 0.1238
222.3 K, 35555 kPa | 0.1171
222.32 K, 26424 kPa | 0.1148
222.32 K, 54366 kPa | 0.1215
222.35 K, 17783 kPa | 0.1123
222.37 K, 44672 kPa | 0.1196
222.39 K, 449 kPa | 0.1078
222.39 K, 8723 kPa | 0.1103
222.4 K, 35559 kPa | 0.1171
222.42 K, 26428 kPa | 0.1148
222.45 K, 17781 kPa | 0.1124
222.49 K, 8727 kPa | 0.1099
222.5 K, 449 kPa | 0.1068
222.54 K, 65394 kPa | 0.1248
222.57 K, 54367 kPa | 0.1222
222.62 K, 44672 kPa | 0.1196
222.67 K, 35561 kPa | 0.1177
222.69 K, 54366 kPa | 0.1219
222.7 K, 26430 kPa | 0.1145
222.73 K, 17781 kPa | 0.1124
222.75 K, 44676 kPa | 0.1192
222.77 K, 8729 kPa | 0.1105
222.79 K, 453 kPa | 0.107
222.79 K, 26430 kPa | 0.1147
222.79 K, 35560 kPa | 0.1173
222.86 K, 17785 kPa | 0.112
222.91 K, 8723 kPa | 0.1098
222.91 K, 65386 kPa | 0.1248
222.92 K, 456 kPa | 0.1067
222.97 K, 54368 kPa | 0.122
223.03 K, 44680 kPa | 0.1196
223.06 K, 65383 kPa | 0.1239
223.07 K, 35560 kPa | 0.1178
223.11 K, 26433 kPa | 0.1152
223.11 K, 54368 kPa | 0.122
223.14 K, 17782 kPa | 0.1124
223.17 K, 44685 kPa | 0.1194
223.21 K, 8729 kPa | 0.1098
223.22 K, 35566 kPa | 0.1174
223.23 K, 454 kPa | 0.1071
223.26 K, 26433 kPa | 0.1147
223.3 K, 17785 kPa | 0.112
223.34 K, 65385 kPa | 0.1243
223.36 K, 8728 kPa | 0.1097
223.39 K, 453 kPa | 0.1069
223.39 K, 54369 kPa | 0.1224
223.46 K, 44687 kPa | 0.1198
223.5 K, 65379 kPa | 0.1241
223.51 K, 35560 kPa | 0.1174
223.56 K, 26434 kPa | 0.1151
223.56 K, 54369 kPa | 0.1215
223.6 K, 17788 kPa | 0.1125
223.63 K, 44686 kPa | 0.1196
223.67 K, 8730 kPa | 0.1101
223.68 K, 35563 kPa | 0.1172
223.71 K, 455 kPa | 0.1073
223.73 K, 26431 kPa | 0.1148
223.78 K, 17788 kPa | 0.1121
223.79 K, 65376 kPa | 0.1246
223.85 K, 54372 kPa | 0.122
223.86 K, 8734 kPa | 0.1093
223.89 K, 457 kPa | 0.1068
223.93 K, 44690 kPa | 0.1197
223.98 K, 35565 kPa | 0.1178
223.98 K, 65378 kPa | 0.124
224.04 K, 26437 kPa | 0.1151
224.05 K, 54371 kPa | 0.1216
224.1 K, 17783 kPa | 0.1124
224.13 K, 44694 kPa | 0.1195
224.18 K, 8734 kPa | 0.1094
224.19 K, 35567 kPa | 0.1173
224.23 K, 457 kPa | 0.107
224.25 K, 26439 kPa | 0.1146
224.31 K, 17787 kPa | 0.1119
224.39 K, 8734 kPa | 0.1092
224.45 K, 456 kPa | 0.1066
241.66 K, 13434 kPa | 0.1054
241.67 K, 7098 kPa | 0.1036
241.69 K, 586 kPa | 0.1011
241.75 K, 13448 kPa | 0.1051
241.78 K, 7107 kPa | 0.1033
241.79 K, 578 kPa | 0.1008
241.92 K, 53262 kPa | 0.1169
241.93 K, 63858 kPa | 0.1199
241.94 K, 36063 kPa | 0.1121
241.94 K, 43857 kPa | 0.1153
241.99 K, 28061 kPa | 0.1109
242.03 K, 20422 kPa | 0.1077
242.03 K, 53260 kPa | 0.1171
242.03 K, 63849 kPa | 0.1192
242.04 K, 43848 kPa | 0.114
